This note sets out measurements from publication PMC8489232, “Structural and catalytic characterization of Blastochloris viridis and Pseudomonas aeruginosa homospermidine synthases supports the essential role of cation–π interaction” (Acta Crystallographica. Section D, Structural Biology, 2021).

Where a chain is given by its changes, count along the chain named. Names and notes keep the numbering of the source.

In data set [1] the target is T1, BvHSS (Blastochloris viridis, UniProt O32323, W229F).
T1 construct: gene hss; full length in pETM-14, E. coli BL21(DE3) Gold; dimer, 106 kDa theoretical
Briefly: X-ray crystal structure, […] A. It counts as binding. The following applies: 1.3 mM NAD+ in protein solution; both subunits; PUT soak, no PUT modelled.

The target in data set [2] is T2, BvHSS (Blastochloris viridis, UniProt O32323, W229A).
T2 construct: gene hss; full length in pETM-14, E. coli BL21(DE3) Gold; dimer, 106 kDa theoretical
In words: X-ray crystal structure, […] A. Conditions: 1.3 mM NAD+ in protein solution; both subunits; PUT soak. It is filed as binding.

A further data set has as its target T3, PaHSS (Pseudomonas aeruginosa, UniProt Q6X2Y9).
T3 construct: gene CL-17; full length, codon-optimized synthetic gene in pETM-14, E. coli BL21(DE3) Gold; N-terminal 6xHis tag removed with HRV3C protease; 52 kDa monomer in solution (SEC-MALS); crystalline dimers
T3 sequence (Q6X2Y9 1-469): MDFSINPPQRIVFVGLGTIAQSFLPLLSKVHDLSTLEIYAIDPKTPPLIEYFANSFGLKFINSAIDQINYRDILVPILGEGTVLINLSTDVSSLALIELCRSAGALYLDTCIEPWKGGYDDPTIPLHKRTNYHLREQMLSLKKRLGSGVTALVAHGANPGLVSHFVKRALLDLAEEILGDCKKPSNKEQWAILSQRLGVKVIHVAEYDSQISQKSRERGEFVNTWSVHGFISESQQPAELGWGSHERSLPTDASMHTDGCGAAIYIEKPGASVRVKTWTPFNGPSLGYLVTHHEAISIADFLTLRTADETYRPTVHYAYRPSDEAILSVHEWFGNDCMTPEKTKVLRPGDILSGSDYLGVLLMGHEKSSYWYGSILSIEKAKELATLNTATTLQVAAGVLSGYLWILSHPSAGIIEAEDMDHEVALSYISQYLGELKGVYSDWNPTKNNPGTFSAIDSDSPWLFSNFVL
Briefly: X-ray crystal structure, […] A. It counts as binding.

The target of data set [3] is T4, BvHSS (Blastochloris viridis, UniProt O32323, E117Q).
T4 construct: gene hss; full length in pETM-14, E. coli BL21(DE3) Gold; dimer, 106 kDa theoretical
In words: X-ray crystal structure, […] A. It counts as binding. The following applies: 1.3 mM NAD+ in protein solution; both subunits; two ribose conformers.

For data set [4], the target named is T5, BvHSS (Blastochloris viridis, UniProt O32323, W229E).
T5 construct: gene hss; full length in pETM-14, E. coli BL21(DE3) Gold; dimer, 106 kDa theoretical
Briefly: X-ray crystal structure, […] A. The following applies: 1.3 mM NAD+ in protein solution; both subunits; PUT soak, no PUT modelled. It counts as binding.

Data set [5] addresses T6, BvHSS (Blastochloris viridis, UniProt O32323, E210Q).
T6 construct: gene hss; full length in pETM-14, E. coli BL21(DE3) Gold; dimer, 106 kDa theoretical
In words: X-ray crystal structure, […] A. It is filed as binding. The following applies: 1.3 mM NAD+ in protein solution; both subunits.

The target in data set [6] is T7, BvHSS (Blastochloris viridis, UniProt O32323, E210A).
T7 construct: gene hss; full length in pETM-14, E. coli BL21(DE3) Gold; dimer, 106 kDa theoretical
In words: X-ray crystal structure, […] A. It is filed as binding. The following applies: 1.3 mM NAD+ in protein solution; both subunits.

Data set [7] deals with the molecule itself. Briefly: SEC-MALS; HPLC-MALS of the purified proteins in solution; data not shown; method in Supplementary Section S1. In general terms: In gel filtration, larger molecules generally elute earlier.
Data set [8] concerns the molecule itself. Briefly: crystal structure; BvHSS variants, hanging-drop vapor diffusion at 291 K, sodium acetate pH 4.6-4.8, PEG 10 000, with NAD+ and agmatine sulfate; space group P22(1)2(1), two molecules in the asymmetric unit.

T2 sequence (O32323 whole entry W229A): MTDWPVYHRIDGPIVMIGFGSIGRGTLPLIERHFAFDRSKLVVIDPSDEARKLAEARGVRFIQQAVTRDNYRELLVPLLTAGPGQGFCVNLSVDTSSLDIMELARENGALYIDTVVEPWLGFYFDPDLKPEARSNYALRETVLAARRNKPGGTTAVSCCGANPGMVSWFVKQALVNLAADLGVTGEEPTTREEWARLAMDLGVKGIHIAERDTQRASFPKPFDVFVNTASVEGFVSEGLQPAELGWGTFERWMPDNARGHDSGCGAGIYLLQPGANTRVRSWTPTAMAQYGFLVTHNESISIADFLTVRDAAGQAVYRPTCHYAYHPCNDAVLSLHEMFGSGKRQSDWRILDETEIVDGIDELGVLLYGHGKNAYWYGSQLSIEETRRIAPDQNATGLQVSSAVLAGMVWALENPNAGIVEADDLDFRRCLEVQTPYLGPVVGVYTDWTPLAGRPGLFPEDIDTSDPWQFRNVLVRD
T7 sequence (O32323 whole entry E210A): as the sequence (O32323 whole entry W229A) above, with E210A, A229W counted along it
T5 sequence (O32323 whole entry W229E): as the sequence (O32323 whole entry W229A) above, with A229E counted along it
T4 sequence (O32323 whole entry E117Q): as the sequence (O32323 whole entry W229A) above, with E117Q, A229W counted along it
T6 sequence (O32323 whole entry E210Q): as the sequence (O32323 whole entry W229A) above, with E210Q, A229W counted along it
T1 sequence (O32323 whole entry W229F): as the sequence (O32323 whole entry W229A) above, with A229F counted along it

Consider `NC(=O)c1ccc[n+]([C@@H]2O[C@H](COP(=O)(O)OP(=O)(O)OC[C@H]3O[C@@H](n4cnc5c(N)ncnc54)[C@H](O)[C@@H]3O)[C@@H](O)[C@H]2O)c1` [NAD^+, nicotinamide adenine dinucleotide], for which the “X-ray crystal structure, 2.08 A” value at BvHSS [1] is “with each subunit containing an NAD^+ molecule in the binding pocket”. Moreover, the “X-ray crystal structure, 2.00 A” value at BvHSS [2] is given as “with each subunit containing an NAD^+ molecule in the binding pocket”. Further, the “X-ray crystal structure, 2.42 A” value on PaHSS (1.3 mM NAD+ in protein solution, all six chains) is “All six PaHSS molecules contain an NAD^+ molecule in their binding pockets”. For the same molecule, on BvHSS [3], the “X-ray crystal structure, 1.77 A” value is “with each subunit containing an NAD^+ molecule in the binding pocket”. In addition, the “X-ray crystal structure, 2.76 A” value at BvHSS [4] was “with each subunit containing an NAD^+ molecule in the binding pocket”. Also, the “X-ray crystal structure, 1.93 A” value at BvHSS [5] is listed as “with each subunit containing an NAD^+ molecule in the binding pocket”. Moreover, on BvHSS [6], the “X-ray crystal structure, 1.75 A” value is recorded as “with each subunit containing an NAD^+ molecule in the binding pocket”.

Turning to `NCCCCN` [PUT, 1,4-diaminobutane], the “X-ray crystal structure, 2.42 A” value at PaHSS (PUT not added, assumed co-purified from E. coli, active site of chains A, C and E, NAD+ present) was “molecules A, C and E additionally contain a PUT molecule in the active site”.

B1: Blastochloris viridis homospermidine synthase, wild type (enzyme)
chain: MTDWPVYHRIDGPIVMIGFGSIGRGTLPLIERHFAFDRSKLVVIDPSDEARKLAEARGVRFIQQAVTRDNYRELLVPLLTAGPGQGFCVNLSVDTSSLDIMELARENGALYIDTVVEPWLGFYFDPDLKPEARSNYALRETVLAARRNKPGGTTAVSCCGANPGMVSWFVKQALVNLAADLGVTGEEPTTREEWARLAMDLGVKGIHIAERDTQRASFPKPFDVFVNTWSVEGFVSEGLQPAELGWGTFERWMPDNARGHDSGCGAGIYLLQPGANTRVRSWTPTAMAQYGFLVTHNESISIADFLTVRDAAGQAVYRPTCHYAYHPCNDAVLSLHEMFGSGKRQSDWRILDETEIVDGIDELGVLLYGHGKNAYWYGSQLSIEETRRIAPDQNATGLQVSSAVLAGMVWALENPNAGIVEADDLDFRRCLEVQTPYLGPVVGVYTDWTPLAGRPGLFPEDIDTSDPWQFRNVLVRD
notes: also called BvHSS; wild-type BvHSS; source: E. coli BL21(DE3) Gold, purified (as described previously, Krossa et al., 2016)
Take B1: in [7], the stoichiometry N – broadly, the number of molecules, sites or subunits per partner or assembly – is 2.

B2: Blastochloris viridis homospermidine synthase variant E210Q (enzyme)
chain: B1 chain with E210Q
notes: homospermidine synthase of Blastochloris viridis, UniProtKB O32323, single-residue variant made by site-directed mutagenesis of BvHSS pETM-14; Same construct as m2 with one substitution; also called BvHSS (E210Q); BvHSS E210Q; source: E. coli BL21(DE3) Gold, purified (as described previously, Krossa et al., 2016)
In the case of B2, the binding result in data set [8] was “binds”.

B3: Blastochloris viridis homospermidine synthase variant E210A (enzyme)
chain: B1 chain with E210A
notes: homospermidine synthase of Blastochloris viridis, UniProtKB O32323, single-residue variant made by site-directed mutagenesis of BvHSS pETM-14; Same construct as m2 with one substitution; also called BvHSS (E210A); BvHSS E210A; source: E. coli BL21(DE3) Gold, purified (as described previously, Krossa et al., 2016)
For B3, the binding result in [8] was “binds”.

B4: Blastochloris viridis homospermidine synthase variant E117Q (enzyme)
chain: B1 chain with E117Q
notes: homospermidine synthase of Blastochloris viridis, UniProtKB O32323, single-residue variant made by site-directed mutagenesis of BvHSS pETM-14; Same construct as m2 with one substitution; also called BvHSS (E117Q); BvHSS E117Q; source: E. coli BL21(DE3) Gold, purified (as described previously, Krossa et al., 2016)
In the case of B4, the binding result in data set [8] was “binds”.

B5: Blastochloris viridis homospermidine synthase variant W229A (enzyme)
chain: B1 chain with W229A
notes: homospermidine synthase of Blastochloris viridis, UniProtKB O32323, single-residue variant made by site-directed mutagenesis of BvHSS pETM-14; Same construct as m2 with one substitution; also called BvHSS (W229A); BvHSS W229A; source: E. coli BL21(DE3) Gold, purified (as described previously, Krossa et al., 2016)
As for B5, the binding result in data set [8] is given as “binds”.

B6: Blastochloris viridis homospermidine synthase variant W229E (enzyme)
chain: B1 chain with W229E
notes: homospermidine synthase of Blastochloris viridis, UniProtKB O32323, single-residue variant made by site-directed mutagenesis of BvHSS pETM-14; Same construct as m2 with one substitution; also called BvHSS (W229E); BvHSS W229E; source: E. coli BL21(DE3) Gold, purified (as described previously, Krossa et al., 2016)
Consider B6, for which the binding result in data set [8] is reported as “binds”.

B7: Blastochloris viridis homospermidine synthase variant W229F (enzyme)
chain: B1 chain with W229F
notes: homospermidine synthase of Blastochloris viridis, UniProtKB O32323, single-residue variant made by site-directed mutagenesis of BvHSS pETM-14; Same construct as m2 with one substitution; also called BvHSS (W229F); BvHSS W229F; source: E. coli BL21(DE3) Gold, purified (as described previously, Krossa et al., 2016)
Take B7: the binding result in data set [8] is on record as “binds”.
